35 molecules from BigSolDB 2.1 can be followed below.

Structures are written as SMILES.

The conditions of the data set: 298 K.

As usually defined, the solubility (mole fraction) is the moles of solute divided by all moles in the saturated solution. Regarding `O=S(=O)(Nc1ccc(Cl)cc1)c1ccccc1`, the solubility (mole fraction) stood at 1.37e-06 (in n-hexane), 0.0421 (in n-octanol) and 1.68e-06 (in water).

Consider `O=S(=O)(Nc1ccccc1)c1ccccc1`, for which the solubility (mole fraction) (in n-hexane) stood at 0.000101, the solubility (mole fraction) (in n-octanol) is 0.0335 and the solubility (mole fraction) (in water) turned out to be 8.49e-06.

Consider `Nc1ccc(S(=O)(=O)Nc2ccc([N+](=O)[O-])cc2)cc1`, for which the solubility (mole fraction) by setting is: (in n-octanol) 0.003; (in water) 3.65e-06.

With `O=[N+]([O-])c1ccccc1NS(=O)(=O)c1ccccc1`, the solubility (mole fraction) was 0.0106 (in n-octanol) and 1.78e-06 (in water).

As for `COc1ccc(NS(=O)(=O)c2ccc(N)cc2)cc1`, the solubility (mole fraction) is 2.24e-06 (in n-hexane), 0.000233 (in n-octanol) and 1.32e-06 (in water).

As to `Nc1ccc(S(=O)(=O)Nc2ccc(Cl)cc2)cc1`, the solubility (mole fraction) runs as follows: (in n-octanol) 0.00145; (in water) 1.19e-06.

`Cc1ccc(Cl)cc1NS(=O)(=O)c1ccc(N)cc1` yielded a solubility (mole fraction) (in n-hexane) of 2.94e-06, a solubility (mole fraction) (in n-octanol) of 0.00188 and a solubility (mole fraction) (in water) of 1.61e-06.

With `CCOC(=O)c1ccc(NS(=O)(=O)c2ccccc2)nc1`, the solubility (mole fraction) is, setting by setting: (in n-octanol) 0.0006; (in water) 1.24e-06.

Take `Nc1ccc(S(=O)(=O)Nc2ccc(Cl)c(Cl)c2)cc1`: the solubility (mole fraction) runs as follows: (in n-octanol) 0.000422; (in water) 2.05e-07.

As to `Nc1ccc(S(=O)(=O)Nc2ccccc2Cl)c(Cl)c1`, the solubility (mole fraction) runs as follows: (in n-octanol) 7.4e-05; (in water) 1.19e-07.

In the case of `O=[N+]([O-])c1ccc(S(=O)(=O)Nc2nccs2)cc1`, the solubility (mole fraction) (in water) worked out at 4.23e-06.

As to `Cc1ccc(NS(=O)(=O)c2ccc([N+](=O)[O-])cc2)nc1`, the solubility (mole fraction) by setting is: (in n-octanol) 3.38e-05; (in water) 1.13e-06.

Molecule `O=S(=O)(Nc1cccnc1Cl)c1ccccc1` showed a solubility (mole fraction) (in n-hexane) of 2.63e-05 and a solubility (mole fraction) (in n-octanol) of 0.00151.

As for `Nc1ccc(S(=O)(=O)Nc2cc(Cl)c(Cl)cc2Cl)cc1`, the solubility (mole fraction) (in n-hexane) worked out at 6.32e-06, the solubility (mole fraction) (in n-octanol) turned out to be 0.00109 and the solubility (mole fraction) (in water) was determined as 2.51e-07.

In the case of `CN(C)S(=O)(=O)c1ccc(N)cc1`, the solubility (mole fraction) (in n-hexane) is 2.9e-06, the solubility (mole fraction) (in n-octanol) was determined as 0.000873 and the solubility (mole fraction) (in water) amounted to 3.21e-05.

Take `Nc1ccc(S(=O)(=O)Nc2ccc(Cl)cc2)c(Cl)c1`: the solubility (mole fraction) by setting is: (in n-octanol) 0.00248; (in water) 4.72e-07.

Regarding `O=[N+]([O-])c1ccc(NS(=O)(=O)c2ccccc2)cc1`, the solubility (mole fraction) (in n-hexane) was found to be 3.16e-06, the solubility (mole fraction) (in n-octanol) worked out at 0.0116 and the solubility (mole fraction) (in water) worked out at 2.11e-06.

As for `Nc1ccc(S(=O)(=O)Nc2cccc(Cl)c2Cl)cc1`, the solubility (mole fraction) by setting is: (in n-hexane) 6.05e-06; (in n-octanol) 0.000681; (in water) 3.32e-07.

As to `N#Cc1ccc(NS(=O)(=O)c2ccc(N)cc2)cc1`, the solubility (mole fraction) by setting is: (in n-octanol) 0.00129; (in water) 5.47e-06.

Regarding `O=S(=O)(Nc1ccccc1Cl)c1ccccc1`, the solubility (mole fraction) came to 7.73e-06 (in n-hexane), 0.0036 (in n-octanol) and 8.69e-07 (in water).

As to `O=S(=O)(Nc1ncccc1Cl)c1ccccc1`, the solubility (mole fraction) is, setting by setting: (in n-hexane) 6.58e-05; (in n-octanol) 0.00282; (in water) 1.17e-05.

For the molecule `CCc1ccc(NS(=O)(=O)c2ccc(N)cc2)cc1`, the solubility (mole fraction) is 2.77e-06 (in n-hexane), 0.00104 (in n-octanol) and 5.09e-07 (in water).

As for `Nc1ccc(S(=O)(=O)Nc2ccc([N+](=O)[O-])cc2Br)cc1`, the solubility (mole fraction) is, setting by setting: (in n-octanol) 0.000308; (in water) 3.01e-07.

Turning to `CCOc1ccc(NS(=O)(=O)c2ccc([N+](=O)[O-])cc2)cc1`, the solubility (mole fraction) is, setting by setting: (in n-hexane) 3.95e-06; (in n-octanol) 0.00125; (in water) 3.41e-07.

As to `Cc1cc(N)ccc1S(=O)(=O)Nc1ccccc1[N+](=O)[O-]`, the solubility (mole fraction) is, setting by setting: (in n-hexane) 3.22e-06; (in n-octanol) 0.000198; (in water) 5.18e-07.

As to `CCN(CC)S(=O)(=O)c1ccc(N)cc1`, the solubility (mole fraction) runs as follows: (in n-hexane) 2.41e-05; (in n-octanol) 0.0108; (in water) 4.27e-05.

For `Nc1ccc(S(=O)(=O)Nc2cc(Cl)ccc2Cl)cc1`, the solubility (mole fraction) (in n-hexane) stood at 4.69e-06, the solubility (mole fraction) (in n-octanol) came out at 0.000529 and the solubility (mole fraction) (in water) was determined as 7.25e-07.

In the case of `Nc1ccc(S(=O)(=O)N(c2ccccc2)c2ccccc2)cc1`, the solubility (mole fraction) was 5.4e-06 (in n-hexane), 0.000551 (in n-octanol) and 4.84e-07 (in water).

`CNS(=O)(=O)c1ccc(N)cc1`: the solubility (mole fraction) worked out at 0.00486 (in n-octanol) and 0.00103 (in water).

On to `Cc1cc(N)ccc1S(=O)(=O)Nc1ccccc1Cl`, for which the solubility (mole fraction) is, setting by setting: (in n-hexane) 1.08e-06; (in n-octanol) 0.000115; (in water) 1.57e-07.

Consider `Cc1cc(Cl)ccc1NS(=O)(=O)c1ccc(N)cc1`, for which the solubility (mole fraction) was 0.00489 (in n-octanol) and 7.72e-07 (in water).

In the case of `Cc1ccc(NS(=O)(=O)c2ccc(N)cc2)c(Cl)c1`, the solubility (mole fraction) was found to be 2.43e-06 (in n-hexane), 0.00158 (in n-octanol) and 7.65e-07 (in water).

Turning to `Nc1ccc(S(=O)(=O)Nc2ccc(I)cc2)cc1`, the solubility (mole fraction) amounted to 0.00163 (in n-octanol) and 5.44e-07 (in water).

Consider `Cc1ccc(NS(=O)(=O)c2ccc(N)cc2)cc1Cl`, for which the solubility (mole fraction) is, setting by setting: (in n-octanol) 0.000552; (in water) 1.53e-07.

As for `Cc1cc(N)ccc1S(=O)(=O)Nc1ccc(Cl)cc1`, the solubility (mole fraction) by setting is: (in n-hexane) 4.59e-06; (in n-octanol) 0.00356; (in water) 6.71e-07.
